Source: ChEMBL document CHEMBL5665443, “Enzyme Inhibitor Single Concentration assay results for EUbOPEN Chemogenomics Library” (2024)
Where a SMILES comes first, the peptide text is derived from it. [ ]: non-standard residue; d: D form. Arg(Me) = CNC(=N)NCCC[C@H](N)C(=O)O; d4Pal = N[C@H](Cc1ccncc1)C(=O)O; azaGly = NNC(=O)O

Experiments:
Details in all cases: Hit No
[1] = target: T1, Adenine DNA glycosylase (Homo sapiens) (UniProt Q9UIF7);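 further: human MUTYH activity read as 594 nm fluorescence from cleavage and release of a quenched DNA duplex, coupled with APE1 for strand incision, lower signal meaning inhibition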
T1 sequence (whole entry): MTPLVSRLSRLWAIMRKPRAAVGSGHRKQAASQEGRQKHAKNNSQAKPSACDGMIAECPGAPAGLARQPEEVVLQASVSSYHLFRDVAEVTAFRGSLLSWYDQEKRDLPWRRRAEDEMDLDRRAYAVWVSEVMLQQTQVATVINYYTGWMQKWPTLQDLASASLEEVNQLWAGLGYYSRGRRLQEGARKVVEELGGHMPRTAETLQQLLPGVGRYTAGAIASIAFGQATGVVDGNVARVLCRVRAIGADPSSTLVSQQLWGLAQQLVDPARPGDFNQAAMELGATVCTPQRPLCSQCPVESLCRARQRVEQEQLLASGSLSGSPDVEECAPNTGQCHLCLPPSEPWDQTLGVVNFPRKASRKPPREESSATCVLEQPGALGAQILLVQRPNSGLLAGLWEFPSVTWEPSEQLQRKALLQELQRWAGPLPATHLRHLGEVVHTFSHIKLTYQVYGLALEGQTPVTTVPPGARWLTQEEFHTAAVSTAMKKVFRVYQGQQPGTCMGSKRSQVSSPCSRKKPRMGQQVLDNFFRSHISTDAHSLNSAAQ
Description: Inhibition of MUTYH by quantifying inhibition of MUTYH-mediated cleavage and dissociation of quenched duplex DNA oligonucleotides, measured as fluorescence at 594 nm. To generate a functional strand incision and increase turn-over this assay is coupled to APE1.

[2] = target: Endonuclease 8-like 1 (Homo sapiens) (UniProt Q96FI4);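 further: fluorescence at 594 nm from quenched duplex DNA oligonucleotides released by NEIL1 cleavage and strand separation, reported as reduction of this enzyme activity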
Description: Inhibition of NEIL1 by quantifying inhibition of NEIL1-mediated cleavage and dissociation of quenched duplex DNA oligonucleotides, measured as fluorescence at 594 nm.

[3] = target: T2, Endonuclease 8-like 2 (Homo sapiens) (UniProt Q969S2);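 further: fluorescence at 594 nm reports NEIL2 cutting and release of a quenched double-stranded DNA oligo substrate, reduced signal read as inhibition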
T2 sequence (whole entry): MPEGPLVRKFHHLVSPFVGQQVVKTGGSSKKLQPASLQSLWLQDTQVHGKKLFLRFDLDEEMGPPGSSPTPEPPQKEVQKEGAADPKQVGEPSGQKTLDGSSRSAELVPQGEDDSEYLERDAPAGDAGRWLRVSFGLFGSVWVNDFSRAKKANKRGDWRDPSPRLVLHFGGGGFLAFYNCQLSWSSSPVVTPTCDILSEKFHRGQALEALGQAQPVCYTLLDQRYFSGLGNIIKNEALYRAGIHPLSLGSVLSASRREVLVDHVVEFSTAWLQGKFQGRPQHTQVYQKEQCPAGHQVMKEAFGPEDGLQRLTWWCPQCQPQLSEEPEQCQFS
Description: Inhibition of NEIL2 by quantifying inhibition of NEIL2-mediated cleavage and dissociation of quenched duplex DNA oligonucleotides, measured as fluorescence at 594 nm.

[4] = target: N-glycosylase/DNA lyase (Homo sapiens) (UniProt O15527);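 further: OGG1 cleavage of a quenched duplex DNA oligonucleotide, coupled to APE1 for strand incision, read as fluorescence at 594 nm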
Description: Inhibition of OGG1 by quantifying inhibition of OGG1-mediated cleavage and dissociation of quenched duplex DNA oligonucleotides, measured as fluorescence at 594 nm. To generate a functional strand incision and increase turn-over this assay is coupled to APE1.

[5] = target: T3, Single-strand selective monofunctional uracil DNA glycosylase (Homo sapiens) (UniProt Q53HV7);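 further: enzymatic SMUG1 assay coupled with APE1, reading fluorescence at 594 nm released when a quenched double-stranded DNA oligonucleotide substrate is cleaved and separated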
T3 sequence (whole entry): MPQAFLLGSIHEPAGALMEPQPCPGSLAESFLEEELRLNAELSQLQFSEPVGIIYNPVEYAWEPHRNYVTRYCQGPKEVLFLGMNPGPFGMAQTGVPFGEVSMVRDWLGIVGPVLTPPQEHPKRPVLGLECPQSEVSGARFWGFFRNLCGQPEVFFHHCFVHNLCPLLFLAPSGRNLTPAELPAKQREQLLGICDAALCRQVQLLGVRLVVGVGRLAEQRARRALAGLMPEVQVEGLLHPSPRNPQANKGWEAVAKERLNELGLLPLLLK
Description: Inhibition of SMUG1 by quantifying inhibition of SMUG1-mediated cleavage and dissociation of quenched duplex DNA oligonucleotides, measured as fluorescence at 594 nm. To generate a functional strand incision and increase turn-over this assay is coupled to APE1.

[6] = target: G/T mismatch-specific thymine DNA glycosylase (Homo sapiens) (UniProt Q13569);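 further: human TDG cleavage of quenched duplex DNA oligonucleotides coupled to APE1, strand release read as fluorescence at 594 nm, inhibition of TDG activity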
Description: Inhibition of TDG by quantifying inhibition of TDG-mediated cleavage and dissociation of quenched duplex DNA oligonucleotides, measured as fluorescence at 594 nm. To generate a functional strand incision and increase turn-over this assay is coupled to APE1.

[7] = target: Uracil-DNA glycosylase (Homo sapiens) (UniProt P13051);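 further: UNG excision on a quenched double-stranded DNA oligo probe, with APE1 added for strand incision and turnover, read as fluorescence at 594 nm as strands separate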
Description: Inhibition of UNG by quantifying inhibition of UNG-mediated cleavage and dissociation of quenched duplex DNA oligonucleotides, measured as fluorescence at 594 nm. To generate a functional strand incision and increase turn-over this assay is coupled to APE1.

[8] = target: Methyl-CpG-binding domain protein 4 (Homo sapiens) (UniProt O95243);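 further: MBD4 activity read as fluorescence at 594 nm from cleavage and release of a quenched duplex DNA oligonucleotide, with APE1 coupled to incise the strand and raise turnover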
Description: Inhibition of MBD4 by quantifying inhibition of MBD4-mediated cleavage and dissociation of quenched duplex DNA oligonucleotides, measured as fluorescence at 594 nm. To generate a functional strand incision and increase turn-over this assay is coupled to APE1.

[9] = target: T4, Endonuclease III-like protein 1 (Homo sapiens) (UniProt P78549);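 further: enzyme assay tracking NTHL1 cutting and release of a quenched double-stranded DNA oligo substrate, read as fluorescence at 594 nm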
T4 sequence (whole entry): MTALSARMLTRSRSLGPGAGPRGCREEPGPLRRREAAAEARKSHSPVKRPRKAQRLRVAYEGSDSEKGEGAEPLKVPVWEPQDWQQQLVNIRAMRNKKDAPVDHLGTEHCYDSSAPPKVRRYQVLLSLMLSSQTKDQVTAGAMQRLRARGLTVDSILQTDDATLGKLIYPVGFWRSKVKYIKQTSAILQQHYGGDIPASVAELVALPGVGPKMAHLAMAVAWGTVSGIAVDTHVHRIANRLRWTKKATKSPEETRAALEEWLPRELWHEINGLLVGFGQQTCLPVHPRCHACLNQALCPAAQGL
Description: Inhibition of NTHL1 by quantifying inhibition of NTHL1-mediated cleavage and dissociation of quenched duplex DNA oligonucleotides, measured as fluorescence at 594 nm.

Chain of Uracil-DNA glycosylase (Homo sapiens) (P13051 whole entry, the tested form may be a part): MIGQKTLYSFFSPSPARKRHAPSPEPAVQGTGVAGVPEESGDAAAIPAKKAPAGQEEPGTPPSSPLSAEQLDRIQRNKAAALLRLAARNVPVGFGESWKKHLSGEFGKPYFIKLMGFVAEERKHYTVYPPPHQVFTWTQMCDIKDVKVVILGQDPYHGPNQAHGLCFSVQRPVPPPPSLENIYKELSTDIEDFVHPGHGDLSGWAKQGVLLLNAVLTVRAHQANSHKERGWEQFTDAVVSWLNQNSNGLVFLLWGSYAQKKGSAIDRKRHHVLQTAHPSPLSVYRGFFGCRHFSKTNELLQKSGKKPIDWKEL
Chain of G/T mismatch-specific thymine DNA glycosylase (Homo sapiens) (Q13569 whole entry): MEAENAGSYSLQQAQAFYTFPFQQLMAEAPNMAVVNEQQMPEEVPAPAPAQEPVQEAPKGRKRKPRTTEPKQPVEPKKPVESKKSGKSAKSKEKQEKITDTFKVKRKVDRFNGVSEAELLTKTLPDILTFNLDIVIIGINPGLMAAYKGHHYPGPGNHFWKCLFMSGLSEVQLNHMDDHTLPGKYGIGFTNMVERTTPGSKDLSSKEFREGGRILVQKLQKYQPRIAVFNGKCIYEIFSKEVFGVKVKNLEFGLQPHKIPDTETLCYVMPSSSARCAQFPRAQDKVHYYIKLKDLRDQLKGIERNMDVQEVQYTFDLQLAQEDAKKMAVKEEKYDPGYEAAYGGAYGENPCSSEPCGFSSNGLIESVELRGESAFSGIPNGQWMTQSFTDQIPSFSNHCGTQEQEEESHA
Chain of Methyl-CpG-binding domain protein 4 (Homo sapiens) (O95243 whole entry, the tested form may be a part): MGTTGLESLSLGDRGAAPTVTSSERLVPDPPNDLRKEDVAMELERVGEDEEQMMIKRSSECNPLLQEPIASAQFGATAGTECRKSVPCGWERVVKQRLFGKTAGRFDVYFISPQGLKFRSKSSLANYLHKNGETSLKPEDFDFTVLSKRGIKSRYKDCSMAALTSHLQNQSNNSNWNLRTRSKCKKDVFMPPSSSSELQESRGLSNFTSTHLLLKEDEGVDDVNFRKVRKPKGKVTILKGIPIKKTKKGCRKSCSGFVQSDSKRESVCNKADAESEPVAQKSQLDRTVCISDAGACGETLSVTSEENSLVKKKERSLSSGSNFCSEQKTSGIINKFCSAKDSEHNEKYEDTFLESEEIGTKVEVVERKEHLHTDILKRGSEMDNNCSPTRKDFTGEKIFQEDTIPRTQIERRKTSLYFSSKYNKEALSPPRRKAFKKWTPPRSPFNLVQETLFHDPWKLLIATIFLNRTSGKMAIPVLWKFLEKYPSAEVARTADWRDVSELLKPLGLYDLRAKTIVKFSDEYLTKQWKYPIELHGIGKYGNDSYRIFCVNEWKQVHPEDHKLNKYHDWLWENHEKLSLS
Chain of N-glycosylase/DNA lyase (Homo sapiens) (O15527 whole entry): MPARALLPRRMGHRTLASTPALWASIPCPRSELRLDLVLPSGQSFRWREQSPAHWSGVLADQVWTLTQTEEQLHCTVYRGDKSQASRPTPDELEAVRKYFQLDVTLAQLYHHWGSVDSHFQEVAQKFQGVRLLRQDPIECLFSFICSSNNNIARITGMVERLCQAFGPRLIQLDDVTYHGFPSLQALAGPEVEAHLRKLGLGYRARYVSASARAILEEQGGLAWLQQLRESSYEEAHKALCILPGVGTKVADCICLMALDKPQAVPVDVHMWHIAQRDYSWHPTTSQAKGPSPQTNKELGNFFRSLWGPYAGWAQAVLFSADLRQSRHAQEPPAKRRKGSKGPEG
Chain of Endonuclease 8-like 1 (Homo sapiens) (Q96FI4 whole entry): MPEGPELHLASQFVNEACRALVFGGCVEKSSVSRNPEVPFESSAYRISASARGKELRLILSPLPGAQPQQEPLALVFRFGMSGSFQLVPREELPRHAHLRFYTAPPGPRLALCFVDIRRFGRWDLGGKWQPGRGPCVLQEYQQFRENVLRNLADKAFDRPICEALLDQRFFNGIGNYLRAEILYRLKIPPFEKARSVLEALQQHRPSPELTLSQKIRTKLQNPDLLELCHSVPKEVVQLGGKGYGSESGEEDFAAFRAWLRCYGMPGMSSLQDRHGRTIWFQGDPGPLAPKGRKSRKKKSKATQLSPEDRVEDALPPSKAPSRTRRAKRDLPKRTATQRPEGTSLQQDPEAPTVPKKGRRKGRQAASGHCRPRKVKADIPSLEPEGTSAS

| Compound | inhibition ([1]; Compound Concentration 10.0 uM) [%] | inhibition ([2]; Compound Concentration 10.0 uM) [%] | inhibition ([3]; Compound Concentration 10.0 uM) [%] | inhibition ([4]; Compound Concentration 10.0 uM) [%] | inhibition ([5]; Compound Concentration 10.0 uM) [%] | inhibition ([6]; Compound Concentration 10.0 uM) [%] | inhibition ([7]; Compound Concentration 10.0 uM) [%] | inhibition ([8]; Compound Concentration 10.0 uM) [%] | inhibition ([1]; Compound Concentration 1.0 uM) [%] | inhibition ([2]; Compound Concentration 1.0 uM) [%] | inhibition ([3]; Compound Concentration 1.0 uM) [%] | inhibition ([4]; Compound Concentration 1.0 uM) [%] | inhibition ([5]; Compound Concentration 1.0 uM) [%] | inhibition ([6]; Compound Concentration 1.0 uM) [%] | inhibition ([7]; Compound Concentration 1.0 uM) [%] | inhibition ([9]; Compound Concentration 10.0 uM) [%] | inhibition ([8]; Compound Concentration 1.0 uM) [%] | inhibition ([9]; Compound Concentration 1.0 uM) [%] |
| --- | --- | --- | --- | --- | --- | --- | --- | --- | --- | --- | --- | --- | --- | --- | --- | --- | --- | --- |
| COc1ccc(S(=O)(=O)c2cc(OC)ccc2S(=O)(=O)c2ccc([C@H](C)NS(C)(=O)=O)cc2)cc1 | 12.1 | 2.76 | 4.76 | -5.59 | 4.18 | -5.72 | – | – | – | – | – | – | – | – | – | – | – | – |
| Cc1c(CC(=O)O)c2cccnc2n1Cc1ccc(S(C)(=O)=O)cc1C(F)(F)F | 7.57 | 0.834 | 7.75 | -4.75 | -4.39 | -3.98 | – | – | – | – | – | – | – | – | – | – | – | – |
| C[C@@H](N)Cc1c[nH]cn1 | -1.26 | 3.8 | -9.22 | -8 | -2.12 | 19 | -6.39 | – | – | – | – | – | – | – | – | – | – | – |
| Cc1cc(C(=O)N2Cc3cnn(C)c3Nc3ccccc32)ccc1CNC(=O)N1CCC[C@H]1C(=S)N1CCCN(C)CC1 | -9.83 | -1.83 | 2.51 | -7 | -2.21 | -7.26 | – | – | – | – | – | – | – | – | – | – | – | – |
| CCC(=O)Nc1cccc(Oc2nc(Nc3ccc(N4CCN(C)CC4)cc3OC)ncc2Cl)c1 | -2.48 | -1.18 | -8.65 | – | 21.8 | 56.8 | -2.02 | -9.91 | – | – | – | – | – | – | – | – | – | – |
| NC[C@@H]1O[C@H](C23CC4CC(CC(C4)C2)C3)Cc2c1ccc(O)c2O | 23.1 | 18.5 | 24.7 | – | 12.4 | 31.8 | -2.15 | -8.04 | – | – | – | – | – | – | – | – | – | – |
| CN1CC(=O)N=C1NC(=O)Nc1cccc(Cl)c1 | 3.99 | -2.58 | 3.76 | -2.01 | -1.34 | -6.27 | – | – | – | – | – | – | – | – | – | – | – | – |
| CC(C)C[C@@H]1NC(=O)[C@@H](C(C)C)NC(=O)[C@@H]2CCCN2C(=O)[C@@H](CC(=O)O)NC(=O)[C@@H](Cc2c[nH]c3ccccc23)NC1=O (HELM PEPTIDE1{L.[dW].[dD].P.[dV]}$PEPTIDE1,PEPTIDE1,1:R1-5:R2$$$V2.0) | 6.29 | -3.47 | 0.764 | – | -0.372 | 0.54 | – | -8.68 | – | – | – | – | – | – | – | – | – | – |
| COc1cccc([C@@H](C)NCCCc2ccccc2Cl)c1 | -7.79 | -0.352 | – | -9.29 | 3.94 | 6.54 | – | – | – | – | – | – | – | – | – | – | – | – |
| CCOC(=O)c1c(/C(C#N)=C\N)c2ccc(Cl)c(Cl)c2n1C | – | – | – | – | – | – | – | – | -2.85 | -2.9 | -5.96 | -3.98 | 12.4 | 41.6 | 0.379 | – | – | – |
| Oc1cc2c(cc1O)C(c1ccccc1)CNCC2 (stereo unspecified) | 6.16 | -0.945 | 7.5 | -0.929 | -4.15 | 16.1 | – | – | – | – | – | – | – | – | – | – | – | – |
| CN1CCN(c2ccc(OC(F)(F)F)c(Nc3ncc4c(n3)-c3c(c(C(N)=O)nn3CCO)CC4)c2)CC1 | – | – | – | – | – | – | – | – | 27.3 | 1.33 | -8.92 | -4.24 | 13.3 | 38.7 | 3.38 | – | – | – |
| COc1ccc(C(=O)N2CCN(C(=O)/C=C/c3ccc(Br)cc3)CC2)cc1 | 16.7 | 2.61 | -6.97 | -3.17 | -0.421 | -0.119 | – | – | – | – | – | – | – | – | – | – | – | – |
| Cc1nc[nH]c1CCN | -5.1 | -5.39 | -3.73 | -7.09 | -7.49 | 8.2 | – | – | – | – | – | – | – | – | – | – | – | – |
| Cc1cc(NC(=O)Nc2ccc(N(C)C)cc2)c2cc(F)cc(F)c2n1 | 6.04 | – | – | – | -2.31 | 9.41 | -7.93 | 6.31 | – | – | – | – | – | – | – | – | – | – |
| NC[C@H](O)c1ccc(O)c(O)c1 | -7.66 | 2.61 | -0.983 | -2.34 | – | – | – | – | – | – | – | – | – | – | – | – | – | – |
| CNC(=N)NCCC[C@H](NC(=O)[C@H](CC(C)C)NC(=O)NNC(=O)[C@H](Cc1ccccc1)NC(=O)[C@H](CO)NC(=O)[C@H](CC(N)=O)NC(=O)[C@@H](Cc1ccncc1)NC(=O)[C@H](N)Cc1ccc(O)cc1)C(=O)N[C@@H](Cc1ccccc1)C(N)=O (H-[dY][d4Pal]NSF[azaGly]L[Arg(Me)]F-NH2) | – | -4.68 | 6.4 | -3.16 | 19.5 | 52.5 | 6.61 | 54 | – | – | – | – | – | – | – | -1.29 | – | – |
| Cc1cc(C(=O)N2CCN(C3CN(C(=O)c4ccc(-c5ccccc5)cc4)C3)CC2)no1 | – | -3.92 | -4.32 | -2.62 | 21.1 | 35.7 | 2.8 | 49.9 | – | – | – | – | – | – | – | 1.34 | – | – |
| CC(=O)Nc1ccc(-c2cc(-c3ccccc3)nc3cc(C(=O)NCCCn4ccnc4)nn23)cc1 | – | -3.92 | -6.36 | -1.79 | 10.4 | 38.6 | 5.92 | 52.7 | – | – | – | – | – | – | – | 3.31 | – | – |
| O=C(NCCCC1CCCCC1)c1ccc(CNC(=O)c2cnn(-c3ccccc3)c2C(F)(F)F)cc1 | – | – | – | 4.23 | 6.97 | 22.8 | 0.115 | – | – | -2.11 | -8.65 | 7.9 | 0.918 | 42.2 | -2.97 | -3.4 | 56.5 | – |
| C[C@@](Cc1c[nH]c2ccccc12)(NC(=O)Nc1ccc([N+](=O)[O-])cc1)C(=O)NCC1(c2ccccn2)CCCCC1 | 3.6 | 7.51 | 5.26 | -2.05 | 0.936 | 0.518 | – | – | – | – | – | – | – | – | – | – | – | – |
| CC(C)Oc1ccccc1C(=O)Nc1ccccc1C(=O)Nc1cccc(S(=O)(=O)C(F)(F)F)c1 | 8.72 | -8.8 | -0.483 | – | – | 4.21 | -8.11 | – | – | – | – | – | – | – | – | – | – | – |
| C=C1/C(=C\C=C2/CCC[C@]3(C)[C@@H]([C@H](C)/C=C/C=C/C(O)(CC)CC)CC[C@@H]23)C[C@@H](O)C[C@@H]1O | – | 0.77 | 15.3 | -1.05 | -1.6 | 28.5 | 0.169 | 53.8 | – | – | – | – | – | – | – | -4.57 | – | – |
| Cc1cccc(CN2CCN(C(c3ccccc3)c3ccc(Cl)cc3)CC2)c1 (stereo unspecified) | – | 5.62 | 8.7 | 3.33 | 10.2 | 31.2 | 5.91 | 55.1 | – | – | – | – | – | – | – | 4.63 | – | – |
| COc1cc(-c2cncc(-c3ccc(N4CCN(C(C)C)CC4)cc3)c2C)cc(F)c1C(=O)N1CCCC1 | – | 3.31 | -8.65 | 12.1 | 28.7 | 47.2 | 7.27 | 0.55 | – | – | – | – | – | – | – | 0.0872 | – | – |
| COc1cc(N[C@@H]2CCCC[C@]2(O)C(F)(F)F)ccc1F | – | – | – | – | – | – | – | – | – | 1.98 | 4.36 | 1.9 | 14.3 | 50.9 | 0.673 | – | 65.4 | -3.26 |
